According to ChEMBL document CHEMBL5038634, “Virtual Screening Directly Identifies New Fragment-Sized Inhibitors of Carboxylesterase Notum with Nanomolar Activity” (J Med Chem, 2022):
“And” between values parts separate entries of the source, which are not always exact repeats. Equal values may be shown once.

Molecular target: T1, Palmitoleoyl-protein carboxylesterase NOTUM (Homo sapiens, UniProt Q6P988, C330S)
Assay: Inhibition of human Notum (81 to 451 Cys330Ser) using OPTS as substrate incubated for 40 mins by fluorescence based assay

IC50	SMILES
320 nM and 1600 nM	Cc1ccccc1COc1nn2c(=O)c(C)nnc2s1
24 nM	CSc1cccc(Sc2ccc3n[nH]c(=O)n3n2)c1
30 nM	O=c1[nH]nc2ccc(Sc3ccccc3Cl)nn12
27 nM	Cc1ccc(Sc2ccc3n[nH]c(=O)n3n2)c(C)c1
690 nM	Cc1ccc(Nc2ccc3n[nH]c(=O)n3n2)cc1
87 nM	O=c1[nH]nc2ccc(Sc3ccccc3F)nn12
90 nM	COC(=O)CCC(=O)N1CCc2ccccc21
2700 nM	Cc1ccnc(Sc2ccc3n[nH]c(=O)n3n2)c1
22 nM	Cc1ccc(/C=C2/N=C(c3cccc(Cl)c3Cl)OC2=O)o1
7 nM	Cc1ccc(Sc2ccc3n[nH]c(=O)n3n2)cc1C
28 nM	O=c1[nH]nc2ccc(Sc3ccc(C(F)(F)F)cc3)nn12
240 nM	Cc1ccc(Cc2ccc3n[nH]c(=O)n3n2)cc1
30 nM	O=c1[nH]nc2ccc(Sc3cccc(F)c3)nn12
650 nM	Cc1cccc(Sc2ccc3n[nH]c(=O)n3n2)n1
> 10000 nM	Cc1ccc(Sc2ccc3nn(C)c(=O)n3n2)cc1
50 nM	Cc1ccccc1Sc1ccc2n[nH]c(=O)n2n1
25 nM	CC(C)Oc1cccc(Sc2ccc3n[nH]c(=O)n3n2)c1
70 nM	Cc1ccc(Sc2cc(C)c3n[nH]c(=O)n3n2)cc1
20 nM	O=c1[nH]nc2ccc(Sc3ccc(Cl)cc3Cl)nn12
12 nM	O=C1OC(c2cccc(Cl)c2Cl)=N/C1=C/c1ccco1
89 nM	O=c1[nH]nc2ccc(Sc3ccccc3C(F)(F)F)nn12
15 nM	COc1cccc(Sc2ccc3n[nH]c(=O)n3n2)c1
47 nM	Cc1cc(C)cc(Sc2ccc3n[nH]c(=O)n3n2)c1
14 nM	O=C1OC(c2ccc(Cl)cc2Cl)=N/C1=C\c1ccco1
120 nM	O=c1[nH]nc2ccc(Sc3ccc(F)c(F)c3)nn12
63 nM	O=c1[nH]nc2ccc(Sc3cccc(F)c3F)nn12
> 10000 nM	O=c1[nH]nc2ccc(Sc3ncccn3)nn12
> 10000 nM	O=c1[nH]nc2ccc(Sc3ccncn3)nn12

Molecular target: T1, Palmitoleoyl-protein carboxylesterase NOTUM
Assay: Inhibition of Notum (81 to 451 Cys330Ser) in HEK293T cells expressing TCF-LEF assessed as activation of Wnt signaling using WNT3A as substrate incubated for […] by Steady-Glo luciferase assay
Type: cell-based

EC50 [nM]	SMILES
380	CSc1cccc(Sc2ccc3n[nH]c(=O)n3n2)c1
720	O=c1[nH]nc2ccc(Sc3ccccc3Cl)nn12
300	Cc1ccc(Sc2ccc3n[nH]c(=O)n3n2)c(C)c1
1100	O=c1[nH]nc2ccc(Sc3ccccc3F)nn12
130	Cc1ccc(Sc2ccc3n[nH]c(=O)n3n2)cc1C
300	O=c1[nH]nc2ccc(Sc3ccc(C(F)(F)F)cc3)nn12
260	O=c1[nH]nc2ccc(Sc3cccc(F)c3)nn12
> 10000	Cc1cccc(Sc2ccc3n[nH]c(=O)n3n2)n1
300	Cc1ccccc1Sc1ccc2n[nH]c(=O)n2n1
260	CC(C)Oc1cccc(Sc2ccc3n[nH]c(=O)n3n2)c1
380	O=c1[nH]nc2ccc(Sc3ccc(Cl)cc3Cl)nn12
930	O=c1[nH]nc2ccc(Sc3ccccc3C(F)(F)F)nn12
140	COc1cccc(Sc2ccc3n[nH]c(=O)n3n2)c1
1100	O=c1[nH]nc2ccc(Sc3ccc(F)c(F)c3)nn12
